Here are results for twelve compounds from PubChem BioAssay (NCI).

Test systems include MCF7 breast; M14 melanoma; HOP-62 NSCLC; SW-620 colon; T-47D breast; U251 CNS; NCI/ADR-RES ovarian; NCI-H226 lung; K-562 leukemia; TK-10 renal.
Holding throughout (experiment): NCI-60 cell line screen, 48 h

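Briefly, cells in 96-well plates were exposed to five compound concentrations for 48 h, and endpoints were estimated by linear interpolation. GI50 marks 50% less growth. TGI is the concentration that stops growth completely.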

On to `COc1cccc2c1C(=O)c1c(O)c3c(c(O)c1C2=O)C[C@@](O)(C(=O)CO)C[C@@H]3OC1CC2C(OCN2CN2COC3C(C)OC(O[C@H]4C[C@](O)(C(=O)CO)Cc5c(O)c6c(c(O)c54)C(=O)c4c(OC)cccc4C6=O)CC32)C(C)O1` (stereo partly specified), for which the GI50 in the assay on MCF7 breast is 2.64 nM; with M14 melanoma, 6.7 nM; with HOP-62 NSCLC, 6.09 nM; in the assay with SW-620 colon it was 5.77 nM; with T-47D breast, 1.85 nM; in the assay with U251 CNS, 2.91 nM. Moreover, the GI50 in the assay with NCI/ADR-RES ovarian was 18.7 nM; in the assay on NCI-H226 lung, 9.81 nM; in the assay on K-562 leukemia it was 4.02 nM; with TK-10 renal, 20.5 nM. In addition, the TGI in the assay on MCF7 breast is 120 nM; in the assay on M14 melanoma, 40.5 nM; in the assay with HOP-62 NSCLC it was 103 nM; in the assay on SW-620 colon, more than 1000 nM; with T-47D breast, 17.4 nM; in the assay with U251 CNS, 97.9 nM. Further, the figures for the TGI in the assay with NCI/ADR-RES ovarian, in the assay on NCI-H226 lung and with TK-10 renal were 198 nM, 58.4 nM and 75.2 nM, respectively.
Regarding `CN(C)Cc1c[nH]c2nc[nH]c(=O)c12`, the TGI is 67700 nM with MCF7 breast; more than 100000 nM with M14 melanoma; more than 100000 nM with HOP-62 NSCLC; more than 100000 nM in the assay with SW-620 colon; more than 100000 nM in the assay on T-47D breast; more than 100000 nM with U251 CNS. In addition, the TGI in the assay with NCI/ADR-RES ovarian was more than 100000 nM; in the assay with NCI-H226 lung it was more than 100000 nM; in the assay with K-562 leukemia it was 44400 nM; with TK-10 renal, more than 100000 nM.
As to `CCCCCCCCCCCCNCCCc1ccccc1`, the GI50 with MCF7 breast was 1810 nM; with M14 melanoma, 1760 nM; with HOP-62 NSCLC, 2070 nM; with SW-620 colon, 1640 nM; in the assay on T-47D breast it was 1780 nM; with U251 CNS it was 1530 nM. For the same compound, the GI50 was 1770 nM in the assay on NCI/ADR-RES ovarian, 1870 nM with NCI-H226 lung, 1890 nM in the assay with K-562 leukemia and 1630 nM with TK-10 renal. For the same compound, the TGI with MCF7 breast was found to be 3350 nM; in the assay with M14 melanoma it was 3250 nM; in the assay with HOP-62 NSCLC, 3700 nM; in the assay with SW-620 colon it was 3280 nM; in the assay with T-47D breast, 3370 nM; with U251 CNS, 2860 nM. The TGI with NCI/ADR-RES ovarian was 3500 nM; in the assay on NCI-H226 lung, 3610 nM; in the assay with K-562 leukemia it was 4540 nM; with TK-10 renal, 2980 nM.
Consider `O=C(NCCc1nccs1)c1cnc2c(S)cccc2c1`, for which the GI50 in the assay on MCF7 breast is 1020 nM; in the assay with M14 melanoma it was 3500 nM; in the assay with HOP-62 NSCLC, 4130 nM; in the assay on SW-620 colon, 3620 nM; in the assay on T-47D breast it was 2370 nM; with U251 CNS, 2530 nM. Besides, the GI50 in the assay on NCI/ADR-RES ovarian was 2970 nM; in the assay with NCI-H226 lung, 5700 nM; in the assay with K-562 leukemia it was 980 nM; in the assay with TK-10 renal it was 5800 nM. The TGI was determined as 37500 nM in the assay with MCF7 breast; 38600 nM in the assay on M14 melanoma; 20900 nM with HOP-62 NSCLC; 28700 nM in the assay on SW-620 colon; 62600 nM in the assay with T-47D breast; 16700 nM in the assay with U251 CNS. For the same compound, the TGI in the assay with NCI/ADR-RES ovarian is more than 100000 nM; in the assay on NCI-H226 lung, 21400 nM; with K-562 leukemia, more than 100000 nM; with TK-10 renal it was 19500 nM.
Take `COc1cc(/C=C2\CC3C4CC=C5C[C@@H](N6CCCC6)CC[C@]5(C)C4CC[C@]3(C)[C@H]2OC(C)=O)ccc1OCCCn1ccnc1` (stereo partly specified): the GI50 in the assay with MCF7 breast is 1140 nM; in the assay on M14 melanoma, 304 nM; with HOP-62 NSCLC it was 435 nM; with SW-620 colon, 232 nM; with T-47D breast it was 2190 nM; in the assay with U251 CNS it was 84.5 nM. In addition, the GI50 in the assay on NCI/ADR-RES ovarian is 5350 nM; in the assay with NCI-H226 lung, 10300 nM; in the assay with K-562 leukemia, 119 nM; in the assay with TK-10 renal it was 479 nM. Also, the TGI in the assay on MCF7 breast was more than 21800 nM; in the assay on M14 melanoma, 752 nM; with HOP-62 NSCLC, 1080 nM; with SW-620 colon it was 1210 nM; with T-47D breast, more than 50000 nM; in the assay with U251 CNS, 164 nM. The TGI with NCI/ADR-RES ovarian came to 13500 nM; in the assay on NCI-H226 lung it was 21900 nM; in the assay with K-562 leukemia, 360 nM; with TK-10 renal, 1480 nM.
On to `CC(C)(C)c1ccc(OCCCCCCCN2CCNCC2)cc1`, for which the GI50 in the assay on MCF7 breast is 1620 nM; in the assay on M14 melanoma, 1550 nM; with HOP-62 NSCLC, 1300 nM; with SW-620 colon, 1670 nM; with T-47D breast, 1760 nM; with U251 CNS, 1510 nM. In addition, the GI50 in the assay on NCI/ADR-RES ovarian is 2460 nM; with NCI-H226 lung it was 1860 nM; in the assay with K-562 leukemia, 1560 nM; in the assay on TK-10 renal, 1600 nM. In addition, the TGI was 3260 nM in the assay on MCF7 breast; 3020 nM with M14 melanoma; 2920 nM with HOP-62 NSCLC; 3260 nM in the assay with SW-620 colon; 3930 nM in the assay with T-47D breast; 3050 nM in the assay on U251 CNS. The TGI was found to be 6940 nM with NCI/ADR-RES ovarian, 4100 nM with NCI-H226 lung, 3810 nM in the assay with K-562 leukemia and 3060 nM in the assay on TK-10 renal.
As for `O=C1c2ccccc2-n2c1nc1ccc([N+](=O)[O-])cc1c2=O`, the TGI was 24400 nM in the assay on MCF7 breast; more than 100000 nM in the assay on M14 melanoma; more than 100000 nM with HOP-62 NSCLC; more than 100000 nM in the assay with SW-620 colon; more than 100000 nM in the assay on T-47D breast; more than 100000 nM in the assay with U251 CNS. Further, the TGI with NCI/ADR-RES ovarian, in the assay with NCI-H226 lung, in the assay on K-562 leukemia and in the assay on TK-10 renal was more than 100000 nM throughout.
Take `CC1=C(C(=O)Nc2cc(F)c(F)cc2F)C(c2ccc(N(C)C)cc2)C(C(=O)Nc2cc(F)c(F)cc2F)=C(C)N1`: the GI50 in the assay on MCF7 breast is 16300 nM; with T-47D breast it was 3640 nM; in the assay with NCI/ADR-RES ovarian it was 41200 nM. Besides, the TGI with MCF7 breast was more than 100000 nM; in the assay on M14 melanoma it was more than 100000 nM; in the assay with HOP-62 NSCLC it was more than 100000 nM; in the assay on SW-620 colon it was more than 100000 nM; in the assay on T-47D breast, 59200 nM; in the assay on U251 CNS it was more than 100000 nM. The TGI in the assay on NCI/ADR-RES ovarian is more than 100000 nM; with NCI-H226 lung it was more than 92900 nM; with K-562 leukemia it was more than 100000 nM; in the assay on TK-10 renal it was more than 96000 nM.
For the compound `Cc1ccc(S(=O)(=O)NC(=O)Nc2ncn[nH]2)cc1`, the TGI in the assay with MCF7 breast, in the assay with M14 melanoma, with HOP-62 NSCLC, with SW-620 colon, in the assay on T-47D breast and with U251 CNS was more than 100000 nM in each case. In addition, the TGI with NCI/ADR-RES ovarian, with NCI-H226 lung, in the assay with K-562 leukemia and with TK-10 renal was more than 100000 nM each time.
Consider `O=C1/C(=C/c2ccc([N+](=O)[O-])s2)Oc2ccc(Br)cc21`, for which the GI50 was 309 nM in the assay on MCF7 breast; 423 nM with M14 melanoma; 1000 nM in the assay with HOP-62 NSCLC; 242 nM with SW-620 colon; 250 nM with T-47D breast; 211 nM in the assay on U251 CNS. The GI50 in the assay with NCI/ADR-RES ovarian is 497 nM; in the assay with NCI-H226 lung, 1140 nM; with K-562 leukemia, 135 nM; in the assay with TK-10 renal, 389 nM. Further, the TGI was determined as 1870 nM in the assay with MCF7 breast; 1900 nM in the assay on M14 melanoma; 4300 nM in the assay on HOP-62 NSCLC; 664 nM in the assay on SW-620 colon; 804 nM in the assay with T-47D breast; 482 nM with U251 CNS. Further, the TGI stood at 4910 nM with NCI/ADR-RES ovarian, 2840 nM with NCI-H226 lung, 833 nM in the assay with K-562 leukemia and 4660 nM in the assay on TK-10 renal.
For `C=CC(=O)N1CCN(c2nc(OC[C@@H]3CCCN3C)nc3c(F)c(-c4nc(N)cc(C)c4C(F)(F)F)c(Cl)cc23)[C@@H](C)C1`, the GI50 was 1130 nM in the assay with MCF7 breast; 1850 nM in the assay on M14 melanoma; 1950 nM in the assay with SW-620 colon; 2140 nM in the assay with T-47D breast; 1960 nM with U251 CNS; 12800 nM in the assay on NCI/ADR-RES ovarian. In addition, the GI50 in the assay on NCI-H226 lung was 1880 nM; in the assay with K-562 leukemia it was 2470 nM; in the assay on TK-10 renal, 2010 nM. For the same compound, the TGI in the assay on MCF7 breast amounted to 2510 nM; with M14 melanoma, 3570 nM; in the assay on HOP-62 NSCLC, 13100 nM; in the assay on SW-620 colon it was 3710 nM; in the assay on T-47D breast, 7170 nM; in the assay on U251 CNS, 5050 nM. Further, the TGI in the assay on NCI/ADR-RES ovarian came out at 27800 nM; with NCI-H226 lung, 4520 nM; in the assay with K-562 leukemia it was 8920 nM; in the assay on TK-10 renal, 4530 nM.
Regarding `Cc1nc2sc(C(=O)Nc3cccc4c3OCCO4)c(N)c2cc1C(C)O` (stereo unspecified), the GI50 in the assay on MCF7 breast is 2110 nM; with M14 melanoma it was 3010 nM; with HOP-62 NSCLC, 5350 nM; with SW-620 colon, 3340 nM; with T-47D breast, 5330 nM; in the assay on U251 CNS it was 4660 nM. In addition, the GI50 is 3280 nM in the assay with NCI/ADR-RES ovarian, more than 100000 nM with NCI-H226 lung, 1370 nM in the assay on K-562 leukemia and more than 100000 nM in the assay on TK-10 renal. In addition, the TGI with MCF7 breast, in the assay with M14 melanoma, in the assay on HOP-62 NSCLC, in the assay with SW-620 colon, in the assay on T-47D breast and in the assay with U251 CNS was more than 100000 nM in each case. Further, the TGI in the assay on NCI/ADR-RES ovarian, in the assay with NCI-H226 lung, in the assay with K-562 leukemia and in the assay with TK-10 renal was more than 100000 nM throughout.
